Experimental findings from PubChem BioAssay AID434987 (Southern Research Specialized Biocontainment Screening …, 2010) are described below.

This assay relates to M. tuberculosis H37Rv growth inhibition with meropenem. Kind of assay: dose response, H37Rv, with and without meropenem (AID 434987).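 Also: growth over 7 days at 37 °C before Alamar Blue read on day 9.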
Setting [1] is: M. tuberculosis H37Rv growth inhibition, measured here: IC50 without meropenem.
Where [2] appears, read: M. tuberculosis H37Rv growth inhibition, measured here: IC90 without meropenem.
The mark [3] stands for this setting: measured here: IC90 with meropenem.

Active and inactive are the calls of the source. No rule for the calls is given here.

As a reminder, the IC50 is the concentration that inhibits the measured activity by half. The IC90 is the point of the concentration-response curve where the effect stands at 90%. Low values mean an effect from little substance, high ones a need for much substance. With `CC(=O)c1ccc(OCCCC(=O)OCC(=O)N2CCN(c3ccccc3)CC2)cc1`, the IC50 is 78.7 µM (inactive). Also, under setting [1], the IC50 was > 100 µM. Also, the concentration for an effect of 90% (IC90) under setting [2] is > 100 µM. Also, the IC90 under setting [3] was > 100 µM.
Consider `O=C(CN1C(=O)c2cccc([N+](=O)[O-])c2C1=O)N1CCN(c2ccc(F)cc2)CC1`, for which the IC50 was 58.6 µM (inactive). For the same compound, under setting [1], the concentration for half-maximal inhibition (IC50) came to 91.4 µM. Moreover, the IC90 under setting [2] was > 100 µM. The IC90 under setting [3] was 74.5 µM.
`O=C1C=C2C=C[C@@H]3CC2(O1)[C@H]1CCCCN31`: the IC50 is 78.1 µM (inactive). Moreover, the IC50 under setting [1] was > 100 µM. The concentration for an effect of 90% (IC90) under setting [2] was > 100 µM. In addition, the 90% effect concentration (IC90) under setting [3] is > 100 µM.
`COc1ccc(Cn2c(C)nc3c(c(=O)c4ccccc4n3C)c2=O)cc1`: the IC50 was > 100 µM (inactive). For the same compound, under setting [1], the IC50 was > 100 µM. Under setting [2], the IC90 is > 100 µM. The 90% effect concentration (IC90) under setting [3] is > 100 µM.
As for `CCOC(=O)/C=C/c1ccc2c(c1)S(=O)(=O)N(Cc1ccc(OC)cc1)[C@H]2CC(=O)OCC`, the IC50 was > 100 µM (inactive). The IC50 under setting [1] was > 100 µM. Further, the IC90 under setting [2] was > 100 µM. The IC90 under setting [3] is > 100 µM.
Take `CC1CCN(CC(CS(=O)(=O)c2ccc([N+](=O)[O-])cc2)N2CCC(C)CC2)CC1` (stereo not drawn): the IC50 was 13.7 µM (inactive). This compound showed an IC50 under setting [1] of 21 µM. For the same compound, under setting [2], the concentration for an effect of 90% (IC90) was found to be 30.3 µM. This compound yielded a concentration for an effect of 90% (IC90) under setting [3] of 31.5 µM.
`N#Cc1ccc(NC(=O)COC(=O)C2=COCCO2)cc1`: the IC50 is > 100 µM (inactive). In addition, the IC50 under setting [1] was > 100 µM. Under setting [2], the IC90 is > 100 µM. The IC90 under setting [3] was > 100 µM.
In the case of `CC(=O)Nc1ccc(S(=O)(=O)Nc2cccc3cccnc23)cc1`, the IC50 was 13.2 µM (inactive). For the same compound, the IC50 under setting [1] was found to be 21.5 µM. In addition, the 90% effect concentration (IC90) under setting [2] was > 100 µM. Also, the IC90 under setting [3] is 43.3 µM.
As for `Cc1ccc(C)c(N2CCN(C3CCCC(C)C3)CC2)c1` (stereo not drawn), the IC50 was 37.9 µM (inactive). In addition, under setting [1], the concentration for half-maximal inhibition (IC50) amounted to 48.7 µM. Under setting [2], the 90% effect concentration (IC90) was > 100 µM. Under setting [3], this compound returned an IC90 of 48.2 µM.
`O=C1NC(c2ccc(Br)cc2)Nc2sc3c(c21)CCC3` (stereo not drawn): the IC50 was > 100 µM (inactive). The IC50 under setting [1] was > 100 µM. The IC90 under setting [2] was > 100 µM. Besides, the 90% effect concentration (IC90) under setting [3] was > 100 µM.
On to `CC1(C)CN=C(Nc2nc3ccccc3s2)S1`, for which the IC50 was 29 µM. The half-inhibitory concentration (IC50) under setting [1] was > 100 µM. Besides, the 90% effect concentration (IC90) under setting [2] is > 100 µM. Also, the IC90 under setting [3] was > 50 µM.
As for `CCN1C(=O)[C@@H]2[C@@H](c3ccc(-c4ccc(Cl)c(Cl)c4)c(OC)c3)N3CCC[C@@]3(C(=O)OC)[C@@H]2C1=O`, the IC50 was > 100 µM (inactive). In addition, under setting [1], the IC50 is > 100 µM. Further, the IC90 under setting [2] is > 100 µM. Further, under setting [3], the IC90 is > 100 µM.
Regarding `O=c1[nH]c(=S)[nH]c(O)c1N=Nc1ccc2c(c1)OCCO2`, the IC50 is > 100 µM (inactive). Besides, the concentration for half-maximal inhibition (IC50) under setting [1] is > 100 µM. Moreover, under setting [2], the IC90 is > 100 µM. The IC90 under setting [3] was > 100 µM.
Consider `CCOC(=O)c1ccccc1NC(=O)C1COc2ccccc2O1` (stereo not drawn), for which the IC50 was 12.1 µM. The compound further registered an IC50 under setting [1] of 36.2 µM. In addition, the 90% effect concentration (IC90) under setting [2] was > 100 µM. Besides, the IC90 under setting [3] is > 100 µM.
`CCOC(=O)c1c(C)[nH]c(N=Nc2ccccc2Cl)c1C`: the IC50 is 32.4 µM (inactive). Moreover, under setting [1], the IC50 is 63.1 µM. Moreover, the IC90 under setting [2] was > 100 µM. For the same compound, the IC90 under setting [3] was > 100 µM.
As for `CCOc1cc(C(=O)N2CCC(CC3CC(c4ccccc4)=NO3)(C(=O)NCc3ccc(OC)cc3)CC2)cc(OCC)c1OCC` (stereo not drawn), the IC50 was > 100 µM (inactive). Moreover, the IC50 under setting [1] is > 100 µM. In addition, the 90% effect concentration (IC90) under setting [2] is > 100 µM. Moreover, under setting [3], the IC90 is > 100 µM.
Take `O=C(COC(=O)c1ccc(Cl)cc1[N+](=O)[O-])NNC(=O)c1cccs1`: the IC50 was 24.8 µM (inactive). For the same compound, the half-maximal inhibitory concentration (IC50) under setting [1] stood at 39.4 µM. Moreover, under setting [2], the concentration for an effect of 90% (IC90) was determined as 53.9 µM. In addition, the 90% effect concentration (IC90) under setting [3] was found to be 51.1 µM.
With `CCc1cc2c(-c3ccccc3)cc(=O)oc2cc1OC(C)C(C)=O` (stereo not drawn), the IC50 was 45.6 µM (inactive). Under setting [1], this compound registered an IC50 of 47.4 µM. In addition, under setting [2], the concentration for an effect of 90% (IC90) was 53.8 µM. Under setting [3], this compound displayed an IC90 of 48.5 µM.
Consider `Cc1ccc(C2=NN(C(=O)CN3C(=O)c4ccccc4S3(=O)=O)C(c3ccco3)C2)cc1` (stereo not drawn), for which the IC50 is > 100 µM (inactive). Under setting [1], the half-inhibitory concentration (IC50) was > 100 µM. For the same compound, the concentration for an effect of 90% (IC90) under setting [2] was > 100 µM. Also, under setting [3], the IC90 was > 100 µM.
For `Cn1c(O)c(C2=c3ccccc3=NC2=O)[nH]c1=S`, the IC50 was 16.6 µM. Under setting [1], the IC50 was > 100 µM. The 90% effect concentration (IC90) under setting [2] was > 100 µM. Moreover, the IC90 under setting [3] is > 100 µM.
`Cc1onc(NC(=O)c2ccc([N+](=O)[O-])o2)c1Br`: the IC50 was 6.54 µM. For the same compound, the IC50 under setting [1] was determined as 26.2 µM. Besides, the IC90 under setting [2] came out at 36 µM. Also, the IC90 under setting [3] came to 16.4 µM.
For `C=CCOc1ccc(C2N3CC4(C)CN2CC(CCC)(C3)C4=O)cc1` (stereo not drawn), in that order: > 100 µM (inactive), > 100 µM, > 100 µM and > 100 µM.
